Positions of bridges follow the written chain, without caps; N, C: chain ends. Residues, ends and D or L forms follow the SMILES beside them.
Legend:
C. neoformans [1] = assay: Membrane potential assay, DiSC3(5) dye; type: cell-based, Cryptococcus neoformans; details: 1×, 2×, 4× and 8× the MIC, up to 40 min, ex/em 622/670 nm
Description: An overnight culture of C. neoformans cells was washed thrice and re-suspended in the HEPES buffer (with 5 mM of HEPES, 20 mM of glucose and 0.1 M of KCl, pH 7.5) to achieve a cell density of 10^8 CFU/mL. The fungal suspension was then incubated with 10 µM of DiSC3(5) for 30 min at 37 °C in the dark. […] PBS was added as the negative control and amphotericin B as the positive control. The negative control PBS-treated wells were used to establish baseline fluorescence. Fluorescence intensity was measured and recorded over time for up to 40 min at excitation/emission wavelengths of 622/670 nm. An increase in fluorescence indicated membrane depolarization, which implies the disruption of membrane integrity.

C. neoformans [2] = details: then 4 × MIC on C. neoformans 1 × 10^6 CFU/mL, absorbance 595 nm
Description: Incubation of the mixture was performed for 3 h at 37 °C. A volume of 100 µL of fresh yeast extract peptone dextrose agar (YPDA) broth media was added to the mixture followed by a further 16 h of incubation. Included as negative controls were samples containing heat-inactivated protease with no peptide but media only. The inhibition of fungal growth was detected by measuring absorbance at 595 nm with a Synergy H1 Micro plate Reader (Bio-Tek, Winooski, VT, USA). The assays were performed in three replicates.

C. neoformans [3] = assay: Histopathological examination of infected mice; type: in vivo, C57BL/6J female mice; details: 4 mg/kg i.p., lung, liver, spleen and kidney, 12 h post-treatment
Description: Mice systemic infection and the treatment model were performed to assess the dissemination of fungi to target organs as described by with little modifications. C57BL/6J female mice 20 ± 2 g were immunocompromised through the intraperitoneal injection of 150 mg/kg cyclophosphamide for four days prior to infection. C. neoformans was then cultured in YPDA broth media to mid-log phase. […] Fungal pellets were resuspended in the same buffer, and the optical density (OD) value was adjusted to 4 × 10^7 CFU/mL. A volume of 200 µL of the fungal solution was i.p. injected into immunocompromised mice (n = 4), a total of 8 × 10^6 colony-forming units (CFUs) injected per mouse. Twelve hours post-intraperitoneal inoculation of the fungi, treatment was administered. […] Twelve hours post-treatment, the mice were sacrificed, and blood was collected through retro-orbital bleeding. Organs (lung, liver, kidney, and spleen) were also harvested and divided into two parts. One portion was weighed and placed into a grinding tube with 1 mL of normal saline and then homogenized in a tissue grinder to assess the fungal burden, while fixation of the other portion was performed for the histopathology examination. Following a 5-fold serial dilution in normal saline, 100 µL of the homogenates were seeded on YPDA plates and incubated at 37 °C for 48 h before counting colonies. […]

chymotrypsin = details: peptide 1 mg/mL, peptide:enzyme 250:1, 5 mM CaCl2, 50 mM Tris-HCl pH 7.4, 37 °C, time points 0 to 12 h, SDS-PAGE bands
Description: (§1) The mixture was heated for 10 min at 95 °C to halt enzymatic reaction. A solution of 20 µL of the SDS-PAGE loading buffer (5×) was added to 80 µL of the sample, mixed by vortexing and heated for 5 min at 95 °C. SDS-PAGE analysis was performed using Omni-PAGE™Precast HEPES-Tris Gels. LL37 and colistin antibiotics were used as controls.

trypsin = details: peptide 1 mg/mL, peptide:enzyme 250:1, 5 mM CaCl2, 50 mM Tris-HCl pH 7.4, 37 °C, time points 0 to 12 h, SDS-PAGE bands
Description: as §1

[4] = tested on: Cryptococcus neoformans_BNCC225501; assay: microbe, parasite or virus in culture; details: oxidized QS18 compared with fluconazole
Description: To achieve a final cell concentration of 2 × 10^6 CFU/mL, mid-log phase cultures were diluted with a Yeast and Mold (YM) broth and then put to 96-well plates with two-fold serially diluted peptides (from 0.1 to 89.8 µM) in a 1:1 ratio.

## CC(C)[C@@H]1NC(=O)[C@H](CCCCN)NC(=O)[C@H](Cc2ccccc2)NC(=O)[C@@H](NC(=O)[C@@H](N)CCC(N)=O)CSSC[C@@H](C(=O)N[C@@H](CO)C(=O)N[C@@H](CCCNC(=N)N)C(=O)N[C@@H](CO)C(N)=O)NC(=O)[C@H](CCCCN)NC(=O)[C@H]([C@@H](C)O)NC(=O)[C@H](Cc2ccccc2)NC(=O)[C@@H]2CSSC[C@H](NC1=O)C(=O)N[C@@H](Cc1ccccc1)C(=O)N[C@@H](CCCNC(=N)N)C(=O)N[C@@H](CCCCN)C(=O)N[C@@H](CCCNC(=N)N)C(=O)N2 [QS18] (H-QCFKVCFRKRCFTKCSRS-NH2; disulfide 2-15, 6-11; N-terminus and C-terminus assumed)
C. neoformans [1]
  DiSC3(5) fluorescence (membrane depolarization): significant increase in fluorescence
C. neoformans [2]; 2 h with chymotrypsin (250:1) at 37 °C
  antifungal activity after chymotrypsin exposure: maintained its activity
C. neoformans [2]; 2 h with trypsin (250:1) at 37 °C
  antifungal efficacy after trypsin exposure: reduced antifungal efficacy
C. neoformans [3]
  tissue morphology, H&E staining: near-normal tissue morphology
chymotrypsin
  proteolytic stability with chymotrypsin: remained stable in chymotrypsin even after 12 h of incubation
trypsin
  proteolytic stability with trypsin: complete degradation after 1 h
[4]
  MIC times lower than that of fluconazole: approximately fourteen

From paper PMC11728142, “A Tachyplesin Antimicrobial Peptide from Theraphosidae Spiders with Potent Antifungal Activity Against Cryptococcus neoformans” (Microorganisms, 2024)
